Starred links: 1 amine or outer side, 2 acyl side, 3 side chain; linkers in the order of their positions; H or OH if unused. Positions of bridges follow the written chain, without caps; N, C: chain ends. Non-standard residues stand in square brackets, D forms with d. Residues, ends and D or L forms follow the SMILES beside them. Chains are numbered I, II in the order given. *: point of attachment. isoGln = NC(=O)[C@H](CCC(=O)[*:2])N[*:1]; εLys = N[C@@H](CCCCN[*:1])C(=O)[*:2]; Dab = NCC[C@H](N)C(=O)O; PhAc = O=C(Cc1ccccc1)*
Columns and labels:
[1] = test system: methionine/choline-deficient (MCD) diet rats; test: ΔPP in methionine/choline-deficient (MCD) diet rats; type: in vivo, rat; settings: for Δ PP (mean): SC, MCD diet rats
[2] = test system: methionine/choline-deficient (MCD) diet rats; test: MAP / ΔMAP in methionine/choline-deficient (MCD) diet rats; type: in vivo, rat; settings: for Δ MAP (mean): SC, MCD diet rats
Description: The terlipressin dose was 100 μg/kg.
Data were evaluated as change […] from baseline.

[3] = Effect of buffer concentration on bioavailability and M1 formation after SC (bolus) injection in rats; type: in vivo, rat; settings: s.c. (bolus)
rV1a receptor = biological target: T1, rV1a receptor (Rattus norvegicus, UniProt P30560); test: FLIPR calcium assay, rat V1a (A7r5 cells); type: cell-based; settings: A7R5, read-out: % MPE
T1 construct: endogenously expressing rV1a; host or cells: A7r5 rat thoracic aorta smooth muscle cells
Description: Cell Lines. Studies were conducted with cell lines expressing rat (r) or human (h) Via, V1b, V2, or OT receptors. For the experiments with human receptors, human embryonic kidney (HEK)-flp-in cells stably expressing the lacZ-Zeocin™ fusion gene were used for expression of hV1a and hV1b. These cells were designed for use with the Flp-In™ expression vector containing the gene of interest (here hV1a or hV1b) and the Flp recombinase expression plasmid, pOG44. For hV2 and hOTR, HEK-293 cells transiently expressing hV2 were used.
Functional Cell-Based Assays.

[4] = M1 formation after IV and SC (bolus) injection in healthy rats; settings: in vivo, s.c. (bolus) injection, rat
Text: A similar study in healthy rats was used to evaluate the differences between metabolite formation of Compound 1 after IV bolus and SC (bolus) injection.

vasopressin V1a receptor = test: Pharmacodynamics (blood pressure, MAP, pulse rate, peripheral blood flow, cardiac output, urine volume) in healthy subjects; type: in vivo, human
Description: In some embodiments, MAP is calculated from measurements of systolic blood pressure and diastolic blood pressure. In some embodiments, MAP is calculated when taking into account the pressure during a single cardiac cycle. In some embodiments, MAP is ⅓ (systolic blood pressure−diastolic blood pressure)+diastolic blood pressure.
In some instances, endpoints of the study were: vital signs (e.g., supine blood pressure, pulse, and body temperature), electrocardiogram (ECG) (e.g., intervals, rhythm, and morphology), cardiac function (e.g., cardiac output using echocardiography), peripheral blood flow/tissue perfusion (e.g., by skin color), venous blood gases (e.g., lactate), urinary output, clinical chemistry, hematology, hemostasis, and urinalysis, adverse events (AEs) (e.g., type, frequency, and intensity), pharmacokinetics (e.g., AUC, AUCt, AUCτ, % Extrap AUC, Cmax, tmax, CL, Vz, t1/2, MRT, Vss, F, Ae, and CLR), and metabolite pattern in plasma and urine.

blood lactate = test: Blood lactate in cynomolgus monkeys after SC Compound 1; type: in vivo, cynomolgus monkey; settings: 15-360 min
Description: Blood samples (0.5 mL in EDTA) were collected from a femoral or saphenous vein before dosing and at multiple times continuing out to 480 min after administration. Lactate concentration was also measured as part of PD analysis and collected as EDTA whole blood from the pre-dose, 15-, 40-, 90-, 180-, and 360-min post-administration samples immediately after collection using a Lactate Plus (Nova Biomedical) meter. For blood sample analysis, plasma was prepared from whole blood. Subsequent bioanalysis included compound extraction followed by standard LC/MS methods to determine compound concentration in each sample.

T1 sequence (P30560 whole entry): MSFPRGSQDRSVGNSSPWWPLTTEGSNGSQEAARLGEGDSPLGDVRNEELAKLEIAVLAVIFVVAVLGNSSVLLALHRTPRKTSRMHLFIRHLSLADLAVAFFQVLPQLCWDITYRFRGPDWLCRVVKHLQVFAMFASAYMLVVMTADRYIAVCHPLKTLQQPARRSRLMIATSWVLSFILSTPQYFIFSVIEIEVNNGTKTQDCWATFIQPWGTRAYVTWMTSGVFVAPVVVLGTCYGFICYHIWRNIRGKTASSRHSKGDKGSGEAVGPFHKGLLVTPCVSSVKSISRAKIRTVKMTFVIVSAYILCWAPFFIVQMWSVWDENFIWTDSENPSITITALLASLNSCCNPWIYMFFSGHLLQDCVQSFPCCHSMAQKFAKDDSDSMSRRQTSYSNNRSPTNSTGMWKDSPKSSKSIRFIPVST

CC[C@H](C)[C@@H]1NC(=O)[C@H](Cc2ccccc2)NC(=O)[C@@H](N)CSSC[C@@H](C(=O)N2CCC[C@H]2C(=O)N[C@@H](CCNC(=O)[C@@H](N)CCCCNC(=O)[C@H](CCCCNC(C)=O)NC(=O)CC[C@H](NC(=O)[C@H](CCCNC(=N)N)NC(=O)[C@@H]2CCCN2C(=O)[C@H](C)NC(=O)[C@H](CC(N)=O)NC(=O)[C@H](CCC(N)=O)NC(=O)[C@H](Cc2ccccc2)NC(=O)[C@@H](Cc2ccc(OC)cc2)NC(=O)Cc2ccccc2)C(N)=O)C(=O)NCC(N)=O)NC(=O)[C@H](CC(N)=O)NC(=O)[C@H](CCC(N)=O)NC1=O [Compound 1, Glycinamide, L-cysteinyl-L-phenylalanyl-L-isoleucyl-L-glutaminyl-L-asparaginyl-L-cysteinyl-L-prolyl-N4-(phenylacetyl-O-methyl-D-tyrosyl-L-phenylalanyl-L-glutaminyl-L-asparaginyl-L-alanyl-L-prolyl-L-arginyl-L-isoglutamyl-N5-acetyl-L-lysyl-L-ε-lysyl)-L-2,4-diaminobutyryl-, cyclic (1→6)-disulfide] (I: H-CFIQNCP[Dab]G-NH2 / II: PhAc-[dY](Me)FQNAPR[isoGln]K(Ac)[εLys]; disulfide I:1-I:6; amide I:8-II:C)
Δ PP (mean) ([1]; 25 μg/kg, 0 min): 0.0 mmHg
Δ PP (mean) ([1]; 25 μg/kg, 1 min): −0.3 mmHg
Δ PP (mean) ([1]; 25 μg/kg, 2 min): −0.8 mmHg
Δ PP (mean) ([1]; 25 μg/kg, 3 min): −1.3 mmHg
Δ PP (mean) ([1]; 25 μg/kg, 5 min): −1.8 mmHg
Δ PP (mean) ([1]; 25 μg/kg, 7 min): −1.9 mmHg
Δ PP (mean) ([1]; 25 μg/kg, 10 min): −2.1 mmHg
Δ PP (mean) ([1]; 25 μg/kg, 15 min): −2.2 mmHg
Δ PP (mean) ([1]; 25 μg/kg, 20 min): −2.3 mmHg
Δ PP (mean) ([1]; 25 μg/kg, 30 min): −2.3 mmHg
Δ PP (mean) ([1]; 25 μg/kg, 60 min): −2.2 mmHg
Δ PP (mean) ([1]; 25 μg/kg, 90 min): −1.8 mmHg
Δ PP (mean) ([1]; 100 μg/kg, 0 min): 0.0 mmHg
Δ PP (mean) ([1]; 100 μg/kg, 1 min): −0.5 mmHg
Δ PP (mean) ([1]; 100 μg/kg, 2 min): −1.2 mmHg
Δ PP (mean) ([1]; 100 μg/kg, 3 min): −1.6 mmHg
Δ PP (mean) ([1]; 100 μg/kg, 5 min): −2.1 mmHg
Δ PP (mean) ([1]; 100 μg/kg, 7 min): −2.5 mmHg
Δ PP (mean) ([1]; 100 μg/kg, 10 min): −2.5 mmHg
Δ PP (mean) ([1]; 100 μg/kg, 15 min): −2.4 mmHg
Δ PP (mean) ([1]; 100 μg/kg, 20 min): −2.3 mmHg
Δ PP (mean) ([1]; 100 μg/kg, 30 min): −2.2 mmHg
Δ PP (mean) ([1]; 100 μg/kg, 60 min): −2.0 mmHg
Δ PP (mean) ([1]; 100 μg/kg, 90 min): −1.7 mmHg
Δ PP (mean) ([1]; 500 μg/kg, 0 min): 0.0 mmHg
Δ PP (mean) ([1]; 500 μg/kg, 1 min): −1.2 mmHg
Δ PP (mean) ([1]; 500 μg/kg, 2 min): −1.9 mmHg
Δ PP (mean) ([1]; 500 μg/kg, 3 min): −2.5 mmHg
Δ PP (mean) ([1]; 500 μg/kg, 5 min): −2.9 mmHg
Δ PP (mean) ([1]; 500 μg/kg, 7 min): −3.3 mmHg
Δ PP (mean) ([1]; 500 μg/kg, 10 min): −2.9 mmHg
Δ PP (mean) ([1]; 500 μg/kg, 15 min): −3.5 mmHg
Δ PP (mean) ([1]; 500 μg/kg, 20 min): −3.8 mmHg
Δ PP (mean) ([1]; 500 μg/kg, 30 min): −3.9 mmHg
Δ PP (mean) ([1]; 500 μg/kg, 60 min): −3.4 mmHg
Δ PP (mean) ([1]; 500 μg/kg, 90 min): −3.7 mmHg
maximum ΔPP ([1]; SC 25 jag/kg (so in the source)): −2.3±0.2 mmHg
maximum ΔPP ([1]; SC 100 jag/kg (so in the source)): −2.5±0.3 mmHg
maximum ΔPP ([1]; SC 500 jag/kg (so in the source)): −3.9±0.8 mmHg
Δ MAP (mean) ([2]; 25 μg/kg, 0 min): 0.0 mmHg
Δ MAP (mean) ([2]; 25 μg/kg, 1 min): 1.1 mmHg
Δ MAP (mean) ([2]; 25 μg/kg, 2 min): 1.9 mmHg
Δ MAP (mean) ([2]; 25 μg/kg, 3 min): 2.6 mmHg
Δ MAP (mean) ([2]; 25 μg/kg, 5 min): 3.5 mmHg
Δ MAP (mean) ([2]; 25 μg/kg, 7 min): 4.0 mmHg
Δ MAP (mean) ([2]; 25 μg/kg, 10 min): 4.8 mmHg
Δ MAP (mean) ([2]; 25 μg/kg, 15 min): 5.3 mmHg
Δ MAP (mean) ([2]; 25 μg/kg, 20 min): 5.2 mmHg
Δ MAP (mean) ([2]; 25 μg/kg, 30 min): 4.4 mmHg
Δ MAP (mean) ([2]; 25 μg/kg, 60 min): 3.0 mmHg
Δ MAP (mean) ([2]; 25 μg/kg, 90 min): 3.1 mmHg
Δ MAP (mean) ([2]; 100 μg/kg, 0 min): 0.0 mmHg
Δ MAP (mean) ([2]; 100 μg/kg, 1 min): 2.0 mmHg
Δ MAP (mean) ([2]; 100 μg/kg, 2 min): 3.5 mmHg
Δ MAP (mean) ([2]; 100 μg/kg, 3 min): 4.4 mmHg
Δ MAP (mean) ([2]; 100 μg/kg, 5 min): 7.0 mmHg
Δ MAP (mean) ([2]; 100 μg/kg, 7 min): 8.5 mmHg
Δ MAP (mean) ([2]; 100 μg/kg, 10 min): 9.9 mmHg
Δ MAP (mean) ([2]; 100 μg/kg, 15 min): 11.0 mmHg
Δ MAP (mean) ([2]; 100 μg/kg, 20 min): 11.3 mmHg
Δ MAP (mean) ([2]; 100 μg/kg, 30 min): 10.6 mmHg
Δ MAP (mean) ([2]; 100 μg/kg, 60 min): 10.9 mmHg
Δ MAP (mean) ([2]; 100 μg/kg, 90 min): 9.2 mmHg
Δ MAP (mean) ([2]; 500 μg/kg, 0 min): 0.0 mmHg
Δ MAP (mean) ([2]; 500 μg/kg, 1 min): 2.2 mmHg
Δ MAP (mean) ([2]; 500 μg/kg, 2 min): 4.5 mmHg
Δ MAP (mean) ([2]; 500 μg/kg, 3 min): 6.4 mmHg
Δ MAP (mean) ([2]; 500 μg/kg, 5 min): 9.1 mmHg
Δ MAP (mean) ([2]; 500 μg/kg, 7 min): 12.1 mmHg
Δ MAP (mean) ([2]; 500 μg/kg, 10 min): 14.7 mmHg
Δ MAP (mean) ([2]; 500 μg/kg, 15 min): 13.6 mmHg
Δ MAP (mean) ([2]; 500 μg/kg, 20 min): 13.7 mmHg
Δ MAP (mean) ([2]; 500 μg/kg, 30 min): 11.4 mmHg
Δ MAP (mean) ([2]; 500 μg/kg, 60 min): 9.1 mmHg
Δ MAP (mean) ([2]; 500 μg/kg, 90 min): 10.2 mmHg
highest observed absolute MAP ([2]; SC 25 μg/kg): 79.2±1.4 mmHg
highest observed absolute MAP ([2]; SC 100 μg/kg): 86.8±2.5 mmHg
highest observed absolute MAP ([2]; SC 500 μg/kg): 90.4±3.7 mmHg
maximum ΔMAP ([2]; SC 25 g/kg (so in the source)): 5.3±1.1 mmHg
bioavailability ([3]; about 10 mM buffer): about 13%
bioavailability ([3]; about 100 mM buffer): about 37%
Emax (rV1a receptor): 30%
metabolised [4]: 80 to 90%
reduction in cardiac output, mean (vasopressin V1a receptor; 0.9 mg i.v., echocardiography): 3%-12
individual decreases in cardiac output (vasopressin V1a receptor; any dose, i.v. and s.c., echocardiography): 20-25%
AE of moderate decreased cardiac output (vasopressin V1a receptor; i.v. 0.1 mg): One
subjects with hyperemia (vasopressin V1a receptor; i.v. 0.45 mg, 30 and 90 minutes): 1 subject
urinary volume (vasopressin V1a receptor; i.v. and s.c.): no apparent dose related trends or changes
cardiac output versus placebo (vasopressin V1a receptor; i.v., except 0.1 mg group): decreased
subjects with pallor (vasopressin V1a receptor; i.v., mainly 0.45, 0.6 and 0.9 mg): 18 subjects
cardiac output (vasopressin V1a receptor; s.c. 0.1 and 0.3 mg): slight reduction
subjects with pallor (vasopressin V1a receptor; s.c. 0.1 and 0.3 mg, after 1st dose): About 30%
blood lactate versus pre-dose (blood lactate): not notably increased

Source: patent publication US20260315609A1, “MIXED VASOPRESSIN RECEPTOR AGONIST-ANTAGONIST FOR TREATING END-STAGE LIVER DISEASE AND COMPLICATIONS ASSOCIATED THEREOF” (FERRING B.V., priority 2022, published 2026)
